# Test results taken from US20170349879A1, “METHOD FOR CULTURING NORMAL CELLS AND ODONTOMA CELLS CONTAINED IN ORAL TISSUE” (CHIBA UNIVERSITY, priority 2014, published 2017).
# How the values were obtained:
# Type in all cases: cell-based, human
# amylase [1] = assay: Protein expression analysis of amylase by immunocytological fluorescent staining; settings: salivary gland cells repeatedly subcultured in Rock inhibitor-containing medium; FIG. 3
# Procedure: (i) Salivary gland cells cultured on glass slides were fixed by being treated for 10 minutes with 4% paraformaldehyde (WaKo). (ii) The fixed cells were washed three times with Tris-buffered saline (TBS: Sigma-Aldrich). (iii) The fixed cells were permeated with 0.5% Triton X-100 (WaKo) for 15 minutes. (iv) The fixed cells were reacted for 30 minutes with TBS containing 1% bovine serum albumin (Sigma-Aldrich). (v) The fixed cells were washed three times with TBS. (vi) A primary antibody (anti-goat amylase (Santa Cruz)) was mixed with TBS and reacted at a concentration of 1:200 at 4° C. for 16 hours. (vii) The cells were washed three times with TBS. (viii) Anti-goat Alexa Floor 647 (Millipore) was mixed with phosphate-buffered physiological saline and reacted at a concentration of 1:200 at room temperature for 1 hour. (ix) The cells were washed three times with TBS. (x) The cells were mounted with DAPI-containing mounting medium (DaKo). (xi) The cells were observed under a confocal microscope (FV10i-LIV: OLYMPUS).
# [2] = system: proliferating cell nuclear antigen (PCNA); assay: Western blotting of PCNA (proliferation) in salivary gland cells; settings: salivary gland cells in Rock inhibitor-containing medium; relative to α-tubulin; FIG. 6A
# Procedure: Primary cultured salivary gland cells were cultured in a medium containing a Rock inhibitor and analyzed for their proliferation by Western blotting of proliferating cell nuclear antigen (PCNA: Santa Cruz) and for their apoptosis by Western blotting of caspase-3 (CST). For analysis of their immortalization, the expression of telomerase reverse transcriptase (TERT) was analyzed by quantitative RT-PCR assay.
# The protein levels of PCNA and caspase-3 were measured by Western blotting. In addition, α-tubulin was used as an endogenous control.
# (i) A protein extract was electrophoresed on a 4% to 12% polyacrylamide gel (Invitrogen).
# (ii) The proteins were transferred onto a nitrocellulose membrane (Invitrogen).
# (iii) The membrane was washed with Tris-buffered saline containing 0.1% Tween-20 (WaKo) (TBST), and then blocked with Blocking One (Nacalai Tesque, Inc., Japan) for 30 minutes. […]
# (vi) The membrane was reacted at room temperature for 1 hour with horseradish peroxidase (HRP)-conjugated secondary antibody (Promega) and then treated with Super Signal West Pico Chemiluminescent substrate (Thermo) to develop signals for visualization purposes. The intensity of signals was quantified with a CS analyzer (ATTO) and expressed as a relative value in comparison with the protein level of α-tubulin measured as a control.
# salivary gland cells = assay: Primary culture and subculture of salivary gland cells using a Rock inhibitor (cell morphology); settings: Rock inhibitor-containing medium (10 μM), vs standard medium; FIG. 1
# Procedure: (i) Patient-derived salivary gland cells for use as a source material were taken in a required amount from the labial glands of each patient. (ii) The cells were washed three times with phosphate-buffered physiological saline (PBS) (supplemented with 10 units/ml of penicillin and 100 μg/ml of streptomycin: Sigma-Aldrich). (iii) The cells were cut into small pieces with sterilized iris scissors and a surgical knife (No. 11). (iv) After addition of trypsin (TrypLE Select Enzyme, Gibco, Code No. A12177-01), the cells were shaken at 37° C. for 30 minutes. (v) The cells were mixed with Dulbecco's modified Eagle medium (DMEM: Sigma-Aldrich) (supplemented with 10% fetal bovine serum: Nichirei Bioscience Inc., Japan, 10 units/ml of penicillin and 100 μg/ml of streptomycin), and centrifugation (at 1000 rpm for 5 minutes) was repeated three times. (vi) The cells were mixed with DMEM (supplemented with 10% fetal bovine serum, 10 units/ml of penicillin, 100 μg/ml of streptomycin, 10 μM of the Rock kinase inhibitor and 0.3 μM of L-ascorbic acid 2-phosphate: Sigma-Aldrich) (DMEM+) and then seeded into collagen type 1-coated cell culture dishes (IWAKI). (vii) The cells were washed with PBS once every three days to replace the above medium. (i) The cultured cells were subcultured at 80% confluency. The cells were washed three times with phosphate-buffered physiological saline. […]
# amylase [3] = assay: Expression analysis of amylase by quantitative RT-PCR in salivary gland cells; settings: salivary gland cells repeatedly subcultured in Rock inhibitor-containing medium; relative to GAPDH; FIG. 2
# Procedure: Salivary gland cells were cultured in the presence or absence of a Rock inhibitor and provided for quantitative RT-PCR assay with a LightCycler 480 (Roche) to analyze amylase expression in these salivary gland cells. The primers used for amylase are as shown below, and the universal probe used was #18. The primers used for glyceraldehyde-3-phosphate dehydrogenase (GAPDH) serving as an endogenous control are as shown below, and the universal probe used was #60. The PCR reaction was conducted in accordance with standard protocols by using a mixture (final reaction volume: 20 μl) containing 10 μl of Probe master (Roche), 0.2 μl of each probe master and the primers. The reaction conditions were set to initial denaturation at 95° C. for 5 minutes and 50 amplification cycles of denaturation at 95° C. for 10 seconds, annealing at 60° C. for 30 seconds and elongation reaction at 60° C. for 60 seconds. The mRNA level of the desired gene was expressed as a relative value to the expression level of GAPDH used as a control.
smiles,measurement,setting,value
"CC(N)[C@H]1CC[C@H](C(=O)Nc2ccncc2)CC1 (stereo partly drawn) [Rock inhibitor, (R)-(+)-trans-N-(4-pyridyl)-4-(1-aminoethyl)-cyclohexanecarboxamide]",protein expression of amylase,amylase [1],significantly high
same,PCNA expression,[2],no difference was observed
same,cell morphology of salivary gland cells on repeated subculture,salivary gland cells,maintain their cell morphology arranged in a cobblestone pattern even when repeatedly subcultured
same,mRNA expression of amylase,amylase [3],significantly high
